Assay results reported in US20250098679A1, “HERBICIDAL PYRIDONE DERIVATIVES” (SYNGENTA CROP PROTECTION AG, priority 2021, published 2025).

Tests used:
Format in all cases: in vivo
Conditions in all cases: evaluated after 13 days
[1] = test system: Amaranthus palmeri (AMAPA); assay: Post-emergence Test, Amaranthus palmeri (AMAPA); set-up: key: 5=81-100%, 4=61-80%, 3=41-60%, 2=21-40%, 1=0-20% damage
Method in brief: (§1)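 Percent plant damage was rated 13 days post-application on a 1–5 scale (1=0-20%, 5=81-100%). Application used an aqueous acetone (50:50)/0.5% Tween 20 spray, normally 1000 g/ha, with controlled glasshouse conditions (24/16 °C, 14 h light, 65% humidity).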

Zea mays (ZEAMX) [2] = assay: Post-emergence Test, Zea mays (ZEAMX); set-up: key to percentage damage caused to the plant, ZEAMX (five-point scale): 5=81-100%, 4=61-80%, 3=41-60%, 2=21-40%, 1=0-20% damage
Method in brief: as §1

[3] = test system: Amaranthus retoflexus (AMARE); assay: Pre-emergence Test, Amaranthus retoflexus (AMARE)
[4] = test system: Amaranthus retoflexus (AMARE); assay: Post-emergence Test, Amaranthus retoflexus (AMARE); set-up: key to percentage damage caused to the plant, AMARE (five-point scale): 5=81-100%, 4=61-80%, 3=41-60%, 2=21-40%, 1=0-20% damage
Method in brief: as §1

Setaria faberi (SETFA) [5] = assay: Pre-emergence Test, Setaria faberi (SETFA)
[6] = test system: Ipomoea hederacea (IPOHE); assay: Post-emergence Test, Ipomoea hederacea (IPOHE); set-up: key to percentage damage caused to the plant, IPOHE (five-point scale): 5=81-100%, 4=61-80%, 3=41-60%, 2=21-40%, 1=0-20% damage
Method in brief: as §1

[7] = test system: Ipomoea hederacea (IPOHE); assay: Pre-emergence Test, Ipomoea hederacea (IPOHE)
Zea mays (ZEAMX) [8] = assay: Pre-emergence Test, Zea mays (ZEAMX)
[9] = test system: Echinochloa crus-galli (ECHCG); assay: Pre-emergence Test, Echinochloa crus-galli (ECHCG)
Setaria faberi (SETFA) [10] = assay: Post-emergence Test, Setaria faberi (SETFA); set-up: key to percentage damage caused to the plant, SETFA (five-point scale): 5=81-100%, 4=61-80%, 3=41-60%, 2=21-40%, 1=0-20% damage
Method in brief: as §1

[11] = test system: Amaranthus palmeri (AMAPA); assay: Pre-emergence Test, Amaranthus palmeri (AMAPA)
[12] = test system: Echinochloa crus-galli (ECHCG); assay: Post-emergence Test, Echinochloa crus-galli (ECHCG); set-up: key to percentage damage caused to the plant, ECHCG (five-point scale): 5=81-100%, 4=61-80%, 3=41-60%, 2=21-40%, 1=0-20% damage
Method in brief: as §1

| SMILES | percentage damage caused to the plant, AMAPA (five-point scale) ([1]; 250 g/Ha) | percentage damage caused to the plant, AMAPA (five-point scale) ([1]; 1000 g/ha) | percentage damage caused to the plant, ZEAMX (five-point scale) (Zea mays (ZEAMX) [2]; 250 g/Ha) | percentage damage caused to the plant, ZEAMX (five-point scale) (Zea mays (ZEAMX) [2]; 1000 g/ha) | Pre-emergence Test AMARE, percentage damage caused to the plant (five-point scale) ([3]; 1000 g/ha) | percentage damage caused to the plant, AMARE (five-point scale) ([4]; 250 g/Ha) | percentage damage caused to the plant, AMARE (five-point scale) ([4]; 1000 g/ha) | Pre-emergence Test SETFA, percentage damage caused to the plant (five-point scale) (Setaria faberi (SETFA) [5]; 1000 g/ha) | percentage damage caused to the plant, IPOHE (five-point scale) ([6]; 250 g/Ha) | percentage damage caused to the plant, IPOHE (five-point scale) ([6]; 1000 g/ha) | Pre-emergence Test IPOHE, percentage damage caused to the plant (five-point scale) ([7]; 1000 g/ha) | Pre-emergence Test ZEAMX, percentage damage caused to the plant (five-point scale) (Zea mays (ZEAMX) [8]; 1000 g/ha) | Pre-emergence Test ECHCG, percentage damage caused to the plant (five-point scale) ([9]; 1000 g/ha) | percentage damage caused to the plant, SETFA (five-point scale) (Setaria faberi (SETFA) [10]; 250 g/Ha) | percentage damage caused to the plant, SETFA (five-point scale) (Setaria faberi (SETFA) [10]; 1000 g/ha) | Pre-emergence Test AMAPA, percentage damage caused to the plant (five-point scale) ([11]; 1000 g/ha) | percentage damage caused to the plant, ECHCG (five-point scale) ([12]; 250 g/Ha) | percentage damage caused to the plant, ECHCG (five-point scale) ([12]; 1000 g/ha) | further results |
| --- | --- | --- | --- | --- | --- | --- | --- | --- | --- | --- | --- | --- | --- | --- | --- | --- | --- | --- | --- |
| CCn1c(Cn2ccc(CC#N)n2)cc(=O)c(C(=O)O)c1-c1ccc(Cl)c(Cl)c1 [Compound 175, 6-[[3-(cyanomethyl)pyrazol-1-yl]methyl]-2-(3,4-dichlorophenyl)-1-ethyl-4-oxo-pyridine-3-carboxylic acid] | 0 | 0 | 0 | 1 (1=0-20%) | 0 | 0 | 0 | 3 (3=41-60%) | 1 (1=0-20%) | 2 (2=21-40%) | 1 (1=0-20%) | 0 | 1 (1=0-20%) | 0 | 3 (3=41-60%) | 0 | 1 (1=0-20%) | 2 (2=21-40%) | – |
| CCn1c(Cn2cnc(C(F)(F)F)n2)cc(=O)c(C(=O)O)c1-c1ccc(Cl)c(Cl)c1 [Compound 7, 2-(3,4-dichlorophenyl)-1-ethyl-4-oxo-6-[[3-(trifluoromethyl)-1,2,4-triazol-1-yl]methyl]pyridine-3-carboxylic acid] | – | 1 (1=0-20%) | – | 1 (1=0-20%) | 0 | – | 1 (1=0-20%) | 3 (3=41-60%) | – | 1 (1=0-20%) | 0 | 1 (1=0-20%) | 3 (3=41-60%) | – | 4 (4=61-80%) | 0 | – | 2 (2=21-40%) | – |
| CCn1c(Cn2nc(C)cc2OC)cc(=O)c(C(=O)O)c1-c1ccc(Cl)c(Cl)c1 [Compound 127, 2-(3,4-dichlorophenyl)-1-ethyl-6-[(5-methoxy-3-methyl-pyrazol-1-yl)methyl]-4-oxo-pyridine-3-carboxylic acid] | 0 | 3 (3=41-60%) | 1 (1=0-20%) | 3 (3=41-60%) | 2 (2=21-40%) | 0 | 2 (2=21-40%) | 5 (5=81-100%) | 1 (1=0-20%) | 3 (3=41-60%) | 2 (2=21-40%) | 4 (4=61-80%) | 3 (3=41-60%) | 3 (3=41-60%) | 3 (3=41-60%) | 1 (1=0-20%) | 2 (2=21-40%) | 4 (4=61-80%) | Pre-emergence Test AMARE, percentage damage caused to the plant (five-point scale) ([3]; 250 g/Ha (*)): 1 (1=0-20%); Pre-emergence Test SETFA, percentage damage caused to the plant (five-point scale) (Setaria faberi (SETFA) [5]; 250 g/Ha (*)): 3 (3=41-60%); Pre-emergence Test IPOHE, percentage damage caused to the plant (five-point scale) ([7]; 250 g/Ha (*)): 0; Pre-emergence Test ZEAMX, percentage damage caused to the plant (five-point scale) (Zea mays (ZEAMX) [8]; 250 g/Ha (*)): 0; Pre-emergence Test ECHCG, percentage damage caused to the plant (five-point scale) ([9]; 250 g/Ha (*)): 1 (1=0-20%); Pre-emergence Test AMAPA, percentage damage caused to the plant (five-point scale) ([11]; 250 g/Ha (*)): 1 (1=0-20%) |
